Assay results published in article PMC6133092, “Synthesis of 2-alkylthio-N-(quinazolin-2-yl)benzenesulfonamide derivatives: anticancer activity, QSAR studies, and metabolic stability” (Monatshefte Fur Chemie, 2018).

Legend:
MOLT-4 = experiment: NCI-60 single dose screen, MOLT-4; type: cell-based; details: Homo sapiens, Leukemia, single concentration 10^−5 M, read-out: IGP (inhibition growth percent) MOLT-4
Procedure: (§1) Aside from above, compounds 9–14 and 17–24 were also submitted to National Cancer Institute and evaluated for the cytotoxic effects toward 60 cell lines at a single dose of 10 μM (Table 2). […] As it was summarized in Table 2, leukemia RPMI-8226 and NSCLC A549/ATCC were most sensitive to compounds 18, 22, and 24. These derivatives in 10 μM concentration inhibited the growth of approximately 50% cells belonging to the above mention cell lines.
(§2) Cytotoxicity evaluation of compounds 9–14 and 17–24 was performed at the National Cancer Institute according to NCI-60 DTP human tumor cell line screen procedure.

EKVX = experiment: NCI-60 single dose screen, EKVX; type: cell-based; details: Homo sapiens, NSCLC, single concentration 10^−5 M, read-out: IGP (inhibition growth percent) EKVX
Procedure: as §1, §2

MCF-7 = experiment: NCI-60 single dose screen, MCF-7; type: cell-based; details: Homo sapiens, MCF7; Breast cancer; single concentration 10^−5 M; read-out: IGP (inhibition growth percent) MCF-7
Procedure: as §1, §2

HCT-116 (colon cancer) = experiment: MTT cell viability assay, HCT-116; type: cell-based; details: Homo sapiens, 72 h, mean ± SD
Procedure: (§3) All chemicals, if not stated otherwise, were obtained from Sigma-Aldrich (St. Louis, MO, USA). The MCF-7 and HeLa cell lines were purchased from Cell Lines Services (Eppelheim, Germany), the HCT-116 cell line was purchased from ATCC (ATCC-No: CCL-247). Cells were cultured in Dulbecco’s modified Eagle’s medium (DMEM) supplemented with 10% fetal bovine serum, 2 mM glutamine, 100 units/cm^3 penicillin, and 100 μg/cm^3 streptomycin. Cultures were maintained in a humidified atmosphere with 5% CO2 at 37 °C in an incubator (Heraceus, HeraCell).
(§4) Cell viability was determined using the MTT (3-(4,5-dimethylthiazol-2-yl)-2,5-diphenyltetrazolium bromide) assay. Cells were seeded in 96-well plates at a density of 5 × 10^3 cells/well and treated for 72 h with the examined compounds in the concentration range 1–100 μM (1, 10, 25, 50, and 100 μM). Following treatment, MTT (0.5 mg/cm^3) was added to the medium and cells were further incubated for 2 h at 37 °C. Cells were lysed with DMSO and the absorbance of the formazan solution was measured at 550 nm with a plate reader (Victor, 1420 multilabel counter). […] The experiment was performed in triplicate. Values are expressed as the mean ± SD of at least three independent experiments.

RPMI-8226 = experiment: NCI-60 single dose screen, RPMI-8226; type: cell-based; details: Homo sapiens, RPMI-8226, Leukemia; single concentration 10^−5 M; read-out: IGP (inhibition growth percent) RPMI-8226
Procedure: as §1, §2

UO-31 = experiment: NCI-60 single dose screen, UO-31; type: cell-based; details: Homo sapiens, Renal cancer, single concentration 10^−5 M, read-out: IGP (inhibition growth percent) UO-31
Procedure: as §1, §2

[1] = Metabolic stability in human liver microsomes with NADPH; type: in vitro ADME; details: pooled human liver microsomes, pH 7.4, human liver microsomes 0.5 mg/cm^3, NADPH 1 mM, 10 μM compound, 37 °C, read-out: in vitro metabolic half-life t1/2
Procedure: Selected derivatives were submitted to metabolic stability study to assess their ability to remain unchanged in the presence of human metabolic enzymes. Human liver microsomes were used as they are a rich source of all common CYP isoenzymes. In vitro incubations were performed in the presence of NADPH as a cofactor and the disappearance of a derivative was followed using LC–MS technique. The in vitro metabolic half-life values are gathered in Fig. 3.
Stock solutions of studied compounds were prepared at concentration of 10 mM in DMSO. […] Incubation mixture contained 10 μM of a studied derivative, 1 mM of NADPH (Sigma-Aldrich) and 0.5 mg/cm^3 of pooled human liver microsomes (HLM, Sigma-Aldrich) in potassium phosphate buffer (0.1 M, pH 7.4). Incubation was carried out in thermostat at 37 °C and started by addition of studied compound. 50 mm^3 samples were taken at starting point and after 5, 15, 30, 45, and 60 min. Enzymatic reaction was terminated by the addition of the equal volume of ice-cold acetonitrile. Incubations were performed in triplicates, the average t1/2 and standard deviation was calculated. Control incubations were performed without NADPH to assess chemical instability. After collection, samples were immediately centrifuged (10 min, 10,000 rpm) and resulted supernatant was directly analyzed or kept in − 80 °C until LC–MS analysis. Natural logarithm of a compound over IS peak area ratio was plotted versus incubation time. Metabolic half-time (t1/2) was calculated from the slope of the linear regression.
LC–MS analysis was performed on an Agilent 1260 system coupled to SingleQuad 6120 mass spectrometer (Agilent Technologies, Santa Clara, CA, USA). Poroshell EC-C18 (2.1 mm × 150 mm, 2.7 μm, Agilent Technologies, Santa Clara, CA, USA) was used in reversed-phase mode with gradient elution starting with 5% of phase A (10 mM ammonium formate in water) and 95% of phase B (10 mM ammonium formate in acetonitrile–water mixture, 95:5 v/v). […] Total analysis time was 15 min at 40 °C, flow rate was 1 cm^3/min and the injection volume was 5 mm^3. The mass spectrometer was equipped with electrospray ion source and operated in positive ionization. Mass analyzer was set individually to each compound to detect [M+H]^+ protonated molecule. MSD parameters of the ESI source were as follows: nebulizer pressure 35 psig (N2), drying gas […] (N2), drying gas temperature 300 °C, capillary voltage 3 kV, fragmentor voltage 150 V.

PC-3 = experiment: NCI-60 single dose screen, PC-3; type: cell-based; details: Homo sapiens, Prostate cancer, single concentration 10^−5 M, read-out: IGP (inhibition growth percent) PC-3
Procedure: as §1, §2

SR = experiment: NCI-60 single dose screen, SR; type: cell-based; details: Homo sapiens, Leukemia, single concentration 10^−5 M, read-out: IGP (inhibition growth percent) SR
Procedure: as §1, §2

A549/ATCC = experiment: NCI-60 single dose screen, A549/ATCC; type: cell-based; details: Homo sapiens, A549, NSCLC; single concentration 10^−5 M; read-out: IGP (inhibition growth percent) A549/ATCC
Procedure: as §1, §2

HeLa (cervical cancer) = experiment: MTT cell viability assay, HeLa; type: cell-based; details: Homo sapiens
Procedure: as §3, §4

MCF-7 (breast cancer) = experiment: MTT cell viability assay, MCF-7; type: cell-based, human; details: mean ± SD
Procedure: All of the newly synthesized compounds 9–24 were evaluated for their effects on cell viability in three human cancer cell lines: HCT-116 (colon cancer), HeLa (cervical cancer), and MCF-7 (breast cancer). Cisplatin was used as reference drug. […] Considering the activity of derivatives 9–12, 15, 17, 18, and 21–24, it can be noticed that phenyl group as R^3 bring an increase of cytotoxicity in comparison with methyl in place of R^3. However, this impact seems to be the most important for compounds with the bulky group in R^1 and generally, it is less for a set of derivatives with methyl group substituted in R^1 (9–12).
as §3, §4

NCI-H522 = experiment: NCI-60 single dose screen, NCI-H522; type: cell-based; details: Homo sapiens, NSCLC, single concentration 10^−5 M, read-out: IGP (inhibition growth percent) NCI-H522
Procedure: as §1, §2

HOP-92 = experiment: NCI-60 single dose screen, HOP-92; type: cell-based; details: Homo sapiens, NSCLC, single concentration 10^−5 M, read-out: IGP (inhibition growth percent) HOP-92
Procedure: as §1, §2

UACC-62 = experiment: NCI-60 single dose screen, UACC-62; type: cell-based; details: Homo sapiens, Melanoma, single concentration 10^−5 M, read-out: IGP (inhibition growth percent) UACC-62
Procedure: as §1, §2

HCT-116 = experiment: NCI-60 single dose screen, HCT-116; type: cell-based; details: Homo sapiens, Colon cancer, single concentration 10^−5 M, read-out: IGP (inhibition growth percent) HCT-116
Procedure: as §1, §2

[2] = Table 4, repeats Table 1 values without SD and unit

| SMILES | inhibition at 10 µM (MOLT-4) | inhibition at 10 µM (EKVX) | inhibition at 10 µM (MCF-7) | IC50 (HCT-116 (colon cancer)) | inhibition at 10 µM (RPMI-8226) | inhibition at 10 µM (UO-31) | half-life at 10 μM [1] | inhibition at 10 µM (PC-3) | inhibition at 10 µM (SR) | inhibition at 10 µM (A549/ATCC) | IC50 (HeLa (cervical cancer); MTT, 72 h, mean ± SD) | IC50 (HeLa (cervical cancer); [2]) | IC50 (MCF-7 (breast cancer); Homo sapiens, MCF7, 72 h) | inhibition at 10 µM (NCI-H522) | inhibition at 10 µM (HOP-92) | inhibition at 10 µM (UACC-62) | IC50 (MCF-7 (breast cancer); 72 h) | inhibition at 10 µM (HCT-116) |
| --- | --- | --- | --- | --- | --- | --- | --- | --- | --- | --- | --- | --- | --- | --- | --- | --- | --- | --- |
| Cc1ccc(NC(=O)c2cc(S(=O)(=O)Nc3nc(C)c4ccccc4n3)c(SCc3ccccc3)cc2Cl)cc1 [Compound 23, 2-Benzylthio-4-chloro-5-(4-methylphenylcarbamoyl)-N-(4-methylquinazolin-2-yl)benzenesulfonamide] | 5% | 15% | 8% | 70 ± 1 µM | 17% | 21% | 35 min | 18% | 8% | 6% | 75 ± 2 µM | 75 µM | 97 ± 2 µM |  |  |  |  |  |
| Cc1cc(S(=O)(=O)Nc2nc(C)c3ccccc3n2)c(SCc2ccccc2)cc1Cl [Compound 9, 2-Benzylthio-4-chloro-5-methyl-N-(4-methylquinazolin-2-yl)benzenesulfonamide] | 12% | 3% | 2% | 61 ± 1 µM | 15% | 27% | 51.9 min | 2% | 6% |  | 75 ± 5 µM | 75 µM | 100 ± 2 µM | 9% | 3% | 29% |  |  |
| N.N.[Cl][Pt][Cl] [Cisplatin, reference compound] |  |  |  |  |  |  |  |  |  |  |  |  |  |  |  |  | 3 ± 0.1 µM |  |
| Cc1cc(S(=O)(=O)Nc2nc(-c3ccccc3)c3ccccc3n2)c(SCC(N)=O)cc1Cl [Compound 14, 2-Carbamoylmethylthio-4-chloro-5-methyl-N-(4-phenylquinazolin-2-yl)benzenesulfonamide] | 9% |  |  | 85 ± 3 µM |  | 2% | 90.8 min |  | 17% |  | 120 ± 1 µM |  | 155 ± 9 µM | 4% |  |  |  |  |
| NC(=O)CSc1cc(Cl)c(C(=O)Nc2ccc(Cl)cc2)cc1S(=O)(=O)Nc1nc(-c2ccccc2)c2ccccc2n1 [Compound 20, 2-Carbamoylmethylthio-4-chloro-5-(4-chlorophenylcarbamoyl)-N-(4-phenylquinazolin-2-yl)benzenesulfonamide] | 5% |  | 3% | 140 ± 4 µM | 10% | 3% | 49.7 min | 2% | 6% |  | 110 ± 7 µM | 110 µM | 92 ± 1 µM | 11% | 4% | 8% |  |  |
| Cc1cc(S(=O)(=O)Nc2nc(C)c3ccccc3n2)c(SCc2cc3c(cc2Cl)OCO3)cc1Cl [Compound 11, 4-Chloro-2-(6-chlorobenzo[1,3]dioxol-5-ylmethylthio)-5-methyl-N-(4-methylquinazolin-2-yl)benzenesulfonamide] | 20% | 17% | 4% | 46 ± 1 µM | 32% | 15% | 56.8 min | 23% | 3% | 34% | 58 ± 2 µM | 58 µM | 57 ± 2 µM | 19% |  | 23% |  | 30% |
| Cc1nc(NS(=O)(=O)c2cc(C(=O)Nc3ccccc3)c(Cl)cc2SCc2ccccc2)nc2ccccc12 [Compound 17, 2-Benzylthio-4-chloro-5-phenylcarbamoyl-N-(4-methylquinazolin-2-yl)benzenesulfonamide] | 9% | 18% |  | 84 ± 3 µM | 22% | 24% | 16 min | 3% | 12% | 11% | 72 ± 1 µM | 72 µM | 175 ± 10 µM | 12% | 20% | 14% |  | 5% |
| Cc1nc(NS(=O)(=O)c2cc(C(=O)Nc3ccc(Cl)cc3)c(Cl)cc2SCC(N)=O)nc2ccccc12 [Compound 19, 2-Carbamoylmethylthio-4-chloro-5-(4-chlorophenylcarbamoyl)-N-(4-methylquinazolin-2-yl)benzenesulfonamide] | 3% |  | 4% | 100 ± 4 µM | 3% | 7% |  | 4% | 4% |  | 117 ± 5 µM | 117 µM | 105 ± 3 µM | 8% | 8% |  |  | 4% |
